Entries after “also recorded” stand apart in the source; their conditions may differ. Where two headings read alike, the source gives them in different places.

Data on two molecules can be found in patent US20110105422A1, “USE OF G-RICH OLIGONUCLEOTIDES FOR TREATING NEOPLASTIC DISEASES” (priority 2008, published 2011).

Data set [1] has as its system KG-1 cells. Put plainly: Sulphorhodamine B (SRB) assay, KG-1. Format: cell-based. As to conditions: KG-1, 6 days. How it is done: (§1) Cells of the types described above were seeded in wells of a 96-well plate at a number optimised for each cell line.
(§2) A fixed concentration of AS1411 (either 1 μM or 2.5 μM) was added with varying concentrations of doxorubicin (ranging between 0.12 nM and 30667.0 nM) and cells were incubated for 6 days. A control was run with varying amounts of AS1411 without Doxorubicin. A second control series was run with the varying amounts of Doxorubicin but with no AS1411 present.
(§3) Cells were then washed, fixed to the 96-well plate with 16% TCA and exposed to the dye Sulphorhodamine B (SRB; available from Sigma-Aldrich, Dorset, UK; catalogue number S-1402). The optical density of the remaining cell mass after exposure to AS1411 was measured in a microplate spectrophotometer and IC50 determined.
(§4) The experiments were run in duplicate and the mean optical density calculated.
(§5) Combination index (CI) is determined using Calcusyn software (Biosoft, Cambridge UK) which employs the method of Chou, T.-C. and Talalay, P (See, Chou et al, Adv. Enz. Regul. 22: 27-55, 1984; and Chou, T.-C., Pharmacological Reviews 58:621-681, 2006.).
For orientation: The SRB assay estimates cell density from bound dye.

Data set [2] concerns Namalwa cells. Put plainly: Sulphorhodamine B (SRB) assay, Namalwa. Format: cell-based, human. How it is done: as §1, §2, §3, §4, §5
The subject of data set [3] is K562 cells. The experiment in a line: Sulphorhodamine B (SRB) assay, K562. Format: cell-based. As to conditions: K562, 6 days. How it is done: as §1, §2, §3, §4, §5
Data set [4] deals with Jurkat cells. Put plainly: Sulphorhodamine B (SRB) assay, Jurkat. It counts as cell-based. As to conditions: 6 days. The protocol: as §1, §2, §3, §4, §5
The test system of data set [5] is HL-60 cells. The experiment in a line: Sulphorhodamine B (SRB) assay, HL-60. It counts as cell-based. As to conditions: HL-60, 6 days. How it is done: as §1, §2, §3, §4, §5
For data set [6], the system named is MV411 cells. Put plainly: Sulphorhodamine B (SRB) assay, MV411. Format: cell-based. Conditions: MV411, 6 days. How it is done: as §1, §2, §3, §4, §5
In data set [7] the test system is Daudi cells. Put plainly: Sulphorhodamine B (SRB) assay, Daudi. It counts as cell-based, human. How it is done:
as §1, §2, §3, §4, §5

Data set [8] has as its system Raji cells. The experiment in a line: Sulphorhodamine B (SRB) assay, Raji. It counts as cell-based, human. The protocol:
as §1, §2, §3, §4, §5

The subject of data set [9] is SUP-B15 (ALL) cells. The experiment in a line: SRB assay, paediatric cancer cell line SUP-B15. Format: cell-based. Conditions: SUP-B15, acute lymphoblastic leukaemia (ALL); 6-day SRB; average of at least two experiments. The protocol:
(§6) Cells were typically seeded in wells of a 96-well plate as follows for each cell line:
(§7) AS1411 (G rich oligonucleotide of sequence ID No. 1) was added at a concentration selected from 0, 0.1, 1, 5 or 20 µM and cells were incubated for 6 days
(§8) Cells were then washed, fixed to the 96-well plate and exposed to the dye Sulphorhodamine B (SRB; available from Sigma-Aldrich, Dorset, UK; catalogue number S-1402. The optical density of the remaining cell mass after exposure to AS1411 was measured in a microplate spectrophotometer and IC50 determined. For the time course experiments, AS1411 was washed off cells at the stated time-point, and then fresh medium applied to the cells which were left to grow for the full 6 days of the assay.
as §4

Data set [10] relates to SK-N-AS (neuroblastoma). Put plainly: SRB assay, paediatric cancer cell line SK-N-AS. It counts as cell-based. As to conditions: 6-day SRB, average of at least two experiments. How it is done:
as §6, §7, §8, §4

The subject of data set [11] is Bax protein. Put plainly: Western blot analysis, Bax. It counts as cell-based. As to conditions: cells incubated with AS1411 for 4 days; whole cell lysate; both cell lines; normalised to β-actin. How it is done: (§9) Cells were incubated with AS1411 for 4 days, after which cell lysates were analysed by non-reducing SDS-PAGE analysis using 4-12% NuPAGE Bis-Tris Gels (Invitrogen).
(§10) 10 μg of total protein (whole cell lysate) was loaded per well as assessed by the Lowry assay (Lowry reagent available from Sigma-Aldrich, catalogue number L3540) and detected using ECL Advance western blotting kit (GE Healthcare).
(§11) Anti-nucleolin and bax antibodies were obtained from Santa Cruz and the β-actin antibody from QED.

The test system of data set [12] is MV4-11 (AML) cells. The experiment in a line: SRB assay, paediatric cancer cell line MV4-11. It counts as cell-based. As to conditions: MV4-11, acute myelogenous leukaemia (AML); 6-day SRB; average of at least two experiments. How it is done:
as §6, §7, §8, §4

The test system of data set [13] is nucleolin. Put plainly: Western blot analysis, nucleolin. Conditions: cells incubated with AS1411 for 4 days; whole cell lysate. It counts as cell-based. The protocol:
as §9, §10, §11
(In western blotting, separated proteins are transferred to a membrane and probed.)

Data set [14] concerns A204 (rhabdomyosarcoma). The experiment in a line: SRB assay, paediatric cancer cell line A204. It counts as cell-based. Conditions: 6-day SRB, average of at least two experiments. The protocol: as §6, §7, §8, §4
Data set [15] deals with R-1059-D (osteosarcoma). The experiment in a line: SRB assay, paediatric cancer cell line R-1059-D. Format: cell-based. Conditions: 6-day SRB, average of at least two experiments. The protocol: as §6, §7, §8, §4
[16] abbreviates: Homo sapiens, 144 h, IC50 as doxorubicin concentration, alone or with fixed AS1411.
Setting [17] is: Homo sapiens, 144 h, 6 days, SRB, IC50 as doxorubicin concentration, alone or with fixed AS1411, read-out: Mean IC50.
Setting [18] is: Homo sapiens, doxorubicin alone, read-out: Doxorubicin IC50, Alone.
The mark [19] stands for this setting: Homo sapiens, in combination with 2.5 μM AS1411, read-out: Doxorubicin IC50, In combination with 2.5 μM AS1411.
The mark [20] stands for this setting: doxorubicin IC50 alone vs in combination with 2.5 μM AS1411.
The mark [21] stands for this setting: 6 days, SRB, AS1411 without doxorubicin, read-out: Mean IC50.

In general, IC50 refers to the point on the concentration scale where inhibition reaches its midpoint. Take `COc1cccc2c1C(=O)c1c(O)c3c(c(O)c1C2=O)C[C@@](O)(C(=O)CO)C[C@@H]3O[C@@H]1CC(N)[C@@H](O)C(C)O1` (stereo partly drawn) [Doxorubicin, (8S,10S)-10-(4-amino-5-hydroxy-6-methyl-tetrahydro-2H-pyran-2-yloxy)-6,8,11-trihydroxy-8-(2-hydroxyacetyl)-1-methoxy-7,8,9,10-tetrahydrotetracene-5,12-dione]: the IC50 in data set [1] (setting [16]) is 4860 nM; in data set [2] (Homo sapiens, 144 h, Namalwa, 6 days, SRB, IC50 as doxorubicin concentration, alone or with fixed AS1411, read-out: Mean IC50) it was 69.7 nM; in data set [2] (Homo sapiens, NAMALWA, doxorubicin alone, read-out: Doxorubicin IC50, Alone) it was 69.7 nM; in data set [2] (Homo sapiens, NAMALWA, in combination with 2.5 μM AS1411, read-out: Doxorubicin IC50, In combination with 2.5 μM AS1411), 17.2 nM; in data set [3] (setting [16]), 1260 nM; in data set [4] (Homo sapiens, 144 h, n=1, IC50 as doxorubicin concentration, alone or with fixed AS1411) it was 426 nM. For the same molecule, the IC50 in [5] (setting [16]) worked out at 639 nM; in data set [6] (Homo sapiens, MV4-11, 144 h, IC50 as doxorubicin concentration, alone or with fixed AS1411) it was 75.9 nM; in [7] (setting [17]), 220 nM; in [7] (setting [18]), 220 nM; in data set [7] (setting [19]), 57.2 nM; in [8] (setting [17]), 746 nM. For the same molecule, the IC50 was determined as 746 nM in data set [8] (setting [18]) and 327 nM in data set [8] (setting [19]). In addition, the “Fold increase in potency” value in data set [2] (NAMALWA, doxorubicin IC50 alone vs in combination with 2.5 μM AS1411) is recorded as 4.1 fold; in data set [7] (setting [20]), 3.8 fold; in [8] (setting [20]), 2.3 fold.

As for “AS1411: G-rich oligonucleotide, SEQ ID No: 1, 5′-GGTGGTGGTGGTTGTGGTGGTGGTGG-3′”, the IC50 came to 2.3 nM in data set [9]; 3.2 nM in data set [10]; 2.1 nM in data set [12]; 2320 nM in data set [1] (AS1411 without doxorubicin); 3200 nM in [2] (Namalwa, 6 days, SRB, AS1411 without doxorubicin, read-out: Mean IC50); 7030 nM in data set [3] (AS1411 without doxorubicin). Also, the IC50 in data set [4] (n=1, AS1411 without doxorubicin) stood at 1130 nM; in data set [5] (AS1411 without doxorubicin), 2620 nM; in [14] it was 2.6 nM; in data set [6] (AS1411 without doxorubicin), 2360 nM; in [15] it was 4.7 nM; in [7] (setting [21]) it was 9350 nM. Also, the IC50 in data set [8] (setting [21]) turned out to be 4940 nM. In data set [11], the “Bax protein level (Western blot)” value was “increased levels; also recorded: Up-regulation”. The “total cell lysate nucleolin levels (Western blot)” value in data set [13] is on record as “no effect”.
